{
  "source": "patent US20110039890A1",
  "about": "“4-[2,3-Difluoro-6-(2-fluoro-4-methyl-phenylsulfanyl)-phenyl]-piperidine” (H. LUNDBECK A/S, priority 2007, published 2011)",
  "key": {"5-HT2A receptor [1]": {"target": "T1, 5-HT2A receptor (Homo sapiens, UniProt P28223)", "T1 sequence (P28223 whole entry)": "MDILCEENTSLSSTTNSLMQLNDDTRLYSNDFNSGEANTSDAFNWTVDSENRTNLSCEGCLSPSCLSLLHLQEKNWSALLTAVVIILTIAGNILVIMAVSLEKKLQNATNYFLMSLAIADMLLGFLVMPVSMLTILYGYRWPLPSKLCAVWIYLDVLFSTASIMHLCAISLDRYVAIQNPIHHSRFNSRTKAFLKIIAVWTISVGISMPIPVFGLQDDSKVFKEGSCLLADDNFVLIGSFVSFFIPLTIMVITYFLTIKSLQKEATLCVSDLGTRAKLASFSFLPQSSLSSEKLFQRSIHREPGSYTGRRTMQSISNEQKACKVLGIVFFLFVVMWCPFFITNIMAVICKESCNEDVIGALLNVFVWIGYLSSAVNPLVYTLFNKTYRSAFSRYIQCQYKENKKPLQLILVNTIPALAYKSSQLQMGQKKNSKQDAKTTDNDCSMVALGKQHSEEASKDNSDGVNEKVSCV", "assay": "functional FLIPR assay, 5-HT2A antagonism", "assay_type": "cell-based", "details": "read-out: Kb, antagonist of the 5-HT2A receptor"}, "5-HT2C receptor [2]": {"target": "T2, 5-HT2C receptor (Homo sapiens, UniProt P28335)", "T2 sequence (P28335 33-458)": "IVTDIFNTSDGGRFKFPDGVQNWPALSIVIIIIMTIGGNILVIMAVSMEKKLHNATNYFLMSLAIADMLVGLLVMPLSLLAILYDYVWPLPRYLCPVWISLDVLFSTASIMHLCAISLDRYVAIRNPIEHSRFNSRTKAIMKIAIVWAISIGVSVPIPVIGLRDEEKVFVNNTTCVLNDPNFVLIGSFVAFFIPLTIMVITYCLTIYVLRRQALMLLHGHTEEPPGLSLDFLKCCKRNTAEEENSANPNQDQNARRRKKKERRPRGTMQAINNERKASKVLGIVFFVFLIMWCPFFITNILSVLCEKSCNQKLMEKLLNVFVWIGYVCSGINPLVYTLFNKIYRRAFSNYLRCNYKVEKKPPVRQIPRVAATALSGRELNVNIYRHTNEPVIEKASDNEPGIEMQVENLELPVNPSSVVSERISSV", "assay": "functional assay, 5-HT2C antagonism", "assay_type": "cell-based", "details": "read-out: Kb, antagonist of the 5-HT2C receptor"}, "[3]": {"system": "mice, formalin-injected hind paw", "assay": "formalin model of neuropathic pain", "assay_type": "in vivo", "details": "for time spent licking the injured paw, 0-5 minutes: first phase, vehicle 51; for time spent licking the injured paw, 20-30 minutes: second phase, vehicle 66", "method": "There are several well validated animal models of neuropathic pain available for assess of antinociceptive potential of drugs. Among the most frequently used model are chronic constriction injury models (for example Bennett and Xie, Pain, 1988) and the capsaicin (Gilchrist et al., Pain 1996) and formalin [Neuropharm., 48, 252-263, 2005; Pain, 51, 5-17, 1992] models. […] In this model, mice receive an injection of formalin (4.5%, 20 μl) into the plantar surface of the left hind paw and are afterwards placed into individual glass beakers (2 l capacity) for observation. The irritation caused by the formalin injection elicits a characteristic biphasic behavioural response, as quantified by the amount of time spent licking the injured paw. The first phase (˜0-10 minutes) represents direct chemical irritation and nociception, whereas the second (˜20-30 minutes) is thought to represent pain of neuropathic origin. The two phases are separated by a quiescent period in which behaviour returns to normal. Measuring the amount of time spent licking the injured paw in the two phases assesses the effectiveness of test compounds to reduce the neuropathic-like pain response."}, "5-HT2C receptor [4]": {"target": "T2, 5-HT2C receptor", "assay": "affinity to human serotonin receptor 5-HT2C", "assay_type": "binding", "details": "calculated from the Cheng-Prusoff equation", "source_text": "(§1) Affinity (Ki, nM) for compound I to human serotonin receptors calculated from the Cheng-Prusoff equation"}, "[5]": {"target": "T3, [3H]-noradrenaline reuptake (NAT) (Rattus norvegicus, UniProt Q63380)", "T3 construct": "from tissue", "T3 sequence (Q63380 1-617)": "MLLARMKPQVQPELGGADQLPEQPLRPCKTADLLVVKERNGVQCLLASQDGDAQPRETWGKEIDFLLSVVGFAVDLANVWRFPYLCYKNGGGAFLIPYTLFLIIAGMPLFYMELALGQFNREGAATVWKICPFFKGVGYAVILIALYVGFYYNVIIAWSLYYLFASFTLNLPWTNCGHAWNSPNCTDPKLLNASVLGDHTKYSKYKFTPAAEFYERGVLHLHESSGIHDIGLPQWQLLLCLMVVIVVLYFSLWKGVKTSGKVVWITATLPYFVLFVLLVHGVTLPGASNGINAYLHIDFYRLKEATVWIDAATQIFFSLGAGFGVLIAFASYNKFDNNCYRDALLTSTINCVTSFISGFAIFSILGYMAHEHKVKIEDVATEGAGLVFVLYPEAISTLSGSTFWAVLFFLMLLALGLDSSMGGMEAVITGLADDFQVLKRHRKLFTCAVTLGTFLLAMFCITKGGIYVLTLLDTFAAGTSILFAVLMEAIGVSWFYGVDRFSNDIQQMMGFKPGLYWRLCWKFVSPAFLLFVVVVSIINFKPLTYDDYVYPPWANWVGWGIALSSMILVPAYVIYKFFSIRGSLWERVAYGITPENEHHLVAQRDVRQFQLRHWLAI", "assay": "inhibition of [3H]-noradrenaline reuptake in rat synaptosomes", "assay_type": "biochemical", "source_text": "(§2) IC50 (nM) values Compound I inhibition of the reuptake in rat synaptosomes:\n(§3) [^3H]-serotonin: 2.4 [^3H]-noradrenaline: 12"}, "[6]": {"target": "T4, [3H]-serotonin reuptake (SERT) (Rattus norvegicus, UniProt P31652)", "T4 construct": "from tissue", "T4 sequence (P31652 whole entry)": "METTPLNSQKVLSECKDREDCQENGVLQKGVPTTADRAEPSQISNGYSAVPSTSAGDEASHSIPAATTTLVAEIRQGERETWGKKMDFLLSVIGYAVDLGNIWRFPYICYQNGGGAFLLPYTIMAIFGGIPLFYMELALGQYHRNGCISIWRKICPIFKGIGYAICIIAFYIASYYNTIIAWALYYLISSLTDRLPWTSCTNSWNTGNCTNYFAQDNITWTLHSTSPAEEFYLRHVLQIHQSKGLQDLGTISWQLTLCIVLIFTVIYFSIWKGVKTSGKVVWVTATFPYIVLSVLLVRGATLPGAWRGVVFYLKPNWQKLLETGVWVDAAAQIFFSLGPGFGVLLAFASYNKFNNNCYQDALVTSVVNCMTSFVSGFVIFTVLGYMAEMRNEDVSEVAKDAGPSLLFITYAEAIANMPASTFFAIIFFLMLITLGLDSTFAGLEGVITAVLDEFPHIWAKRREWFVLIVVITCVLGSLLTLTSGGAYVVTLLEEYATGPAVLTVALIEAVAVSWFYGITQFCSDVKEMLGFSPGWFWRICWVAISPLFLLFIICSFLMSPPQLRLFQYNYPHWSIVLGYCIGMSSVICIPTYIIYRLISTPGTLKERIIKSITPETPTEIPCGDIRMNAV", "assay": "inhibition of [3H]-serotonin reuptake in rat synaptosomes", "assay_type": "biochemical", "source_text": "as §2, §3"}, "5-HT2A receptor [7]": {"target": "T1, 5-HT2A receptor", "assay": "affinity to human serotonin receptor 5-HT2A", "assay_type": "binding", "details": "calculated from the Cheng-Prusoff equation", "source_text": "as §1"}},
  "data": [
    {"molecule": "Cc1ccc(Sc2ccc(F)c(F)c2C2CCNCC2)c(F)c1", "note": "[compound I, 4-[2,3-difluoro-6-(2-fluoro-4-methyl-phenylsulfanyl)-phenyl]-piperidine]", "values": [
      {"measurement": "Kb", "setting": "5-HT2A receptor [1]", "result": "~130", "unit": "nM"},
      {"measurement": "Kb", "setting": "5-HT2C receptor [2]", "result": "~35", "unit": "nM"},
      {"measurement": "time spent licking the injured paw, 0-5 minutes", "setting": "[3]; 0.25 mg/kg s.c", "result": 40, "unit": "s"},
      {"measurement": "time spent licking the injured paw, 20-30 minutes", "setting": "[3]; 0.25 mg/kg s.c", "result": 48, "unit": "s"},
      {"measurement": "time spent licking the injured paw, 0-5 minutes", "setting": "[3]; 1 mg/kg s.c", "result": 40, "unit": "s"},
      {"measurement": "time spent licking the injured paw, 20-30 minutes", "setting": "[3]; 1 mg/kg s.c", "result": 21, "unit": "s"},
      {"measurement": "time spent licking the injured paw, 0-5 minutes", "setting": "[3]; 2.5 mg/kg s.c", "result": 31, "unit": "s"},
      {"measurement": "time spent licking the injured paw, 20-30 minutes", "setting": "[3]; 2.5 mg/kg s.c", "result": 7, "unit": "s"},
      {"measurement": "effect in the first phase (direct chemical irritation and nociception)", "setting": "[3]; 0.25-2.5 mg/kg s.c, in words", "result": "little effect"},
      {"measurement": "effect on time spent licking the injured paw in the second phase (neuropathic pain)", "setting": "[3]; 0.25-2.5 mg/kg s.c, in words", "result": "clear and dose-dependent decrease"},
      {"measurement": "Ki", "setting": "5-HT2C receptor [4]", "result": 4.9, "unit": "nM"},
      {"measurement": "IC50", "setting": "[5]", "result": 12, "unit": "nM"},
      {"measurement": "IC50", "setting": "[6]", "result": 2.4, "unit": "nM"},
      {"measurement": "Ki", "setting": "5-HT2A receptor [7]", "result": 13, "unit": "nM"}
    ]}
  ]
}
